Experimental data as given in patent publication US12070472B2, “Treatment of drug resistant proliferative diseases with telomerase mediated telomere altering compounds” (The Board of Regents of the University of Texas System, priority 2016, dated 2024).

Key:
[1] = test system: A549 human lung cancer cells; test: Tumor growth in xenograft animal model with A549 cells; assay type: in vivo, mice; conditions: 2.5 mg/kg every day
Procedure: Doses of 2.5 mg/kg of 6-thio-dG and 2.5 mg/kg of 6-thio-G were injected every day into mice after tumor implantation and providing time for tumor initiation. DMSO injections were used for the control. The volume of the tumor was measured.

[2] = test system: H1819; test: 6-thio-dG on H1819 parental and paclitaxel/carboplatin resistant lines; assay type: cell-based, human; conditions: 1, 3, 10 μM
Procedure: (§1) The resulting resistant lines and their parents were tested for the effect of 6-thio-dG at 1, 3, and 10 μM concentrations.

[3] = test system: H2343; test: NSCLC panel sensitivity to 6-thio-dG, H2343; assay type: cell-based; conditions: Homo sapiens
Procedure: (§2) A panel of NSCLC cell lines was tested for sensitivity to 6-thio-dG by performing a cell count after 1 week treatment. Briefly, cells were treated with 3 μM 6-thio-dG every three days for 1 week. Viable cells were counted at the end of treatment. Each 6-thiodG treated cell line was normalized to its DMSO treated control. The results of the cell count are depicted in FIG. 12, with the various cell lines arranged in descending resistance to 6-thio-dG from left to right. […] The IC50 values for the whole panel of tested cells are depicted in FIG. 13. The IC50 values for tested cells are depicted as a column scatter graph in FIG. 14.

[4] = test system: HCT116; test: GI 50 determination, HCT116; assay type: cell-based; conditions: Homo sapiens, HCT-116
Procedure: (§3) Cells of each type listed in Table 2 were seeded in chamber slides.

[5] = test system: H2073; test: NSCLC panel sensitivity to 6-thio-dG, H2073; assay type: cell-based; conditions: Homo sapiens, NCI-H2073
From the text: (§4) Two isogenic pairs of NSCLC cell lines were studied for sensitization to 6-thio-dG treatment.

[6] = test system: H1819; test: NSCLC panel sensitivity to 6-thio-dG, H1819; assay type: cell-based, human
Procedure: (§5) A panel of NSCLC cell lines was tested for sensitivity to 6-thio-dG by performing a cell count after 1 week treatment. Briefly, cells were treated with 3 μM 6-thio-dG every three days for 1 week. Viable cells were counted at the end of treatment. Each 6-thiodG treated cell line was normalized to its DMSO treated control.
as §4

[7] = test system: BJ-hTERT cells; test: Telomere dysfunction induced foci (TIF) assay in BJ-hTERT cells; assay type: cell-based, human; conditions: 10 μM, after 48 hours
Procedure: (§6) TIFs were quantified using Imaris software.
(§7) Normal BJ cells and […] BJ-hTERT cells were seeded in chamber slides. Following cell attachment, 6-thio-dG (10 μM) and 6-thio-G (10 μM) were added to fresh medium of each cell type. […] A control was used for each cell type as well, where DMSO was added to fresh medium of each cell type. […] These include almost all human cancer cells and certain human diseases involving acute and chronic inflammation.

[8] = test system: paclitaxel/carboplatin resistant H1355; test: 6-thio-dG on paclitaxel/carboplatin resistant H1355, cell count; assay type: cell-based, human; conditions: 1, 3, 10 μM every three days for one week
Procedure: A cell count was performed to measure cell growth/death.

[9] = test system: H2087; test: GI 50 determination, H2087; assay type: cell-based; conditions: Homo sapiens, NCI-H2087
Procedure: as §3

[10] = test system: H2126; test: NSCLC panel sensitivity to 6-thio-dG, H2126; assay type: cell-based; conditions: Homo sapiens, NCI-H2126
Procedure: as §2

[11] = test system: H324; test: NSCLC panel sensitivity to 6-thio-dG, H324; assay type: cell-based; conditions: Homo sapiens
Procedure: as §2

[12] = test system: H1693; test: NSCLC panel sensitivity to 6-thio-dG, H1693; assay type: cell-based, human
Procedure: as §5, §4

[13] = test system: HCT116 cells
Procedure: Following the treatment cells were seeded at different densities and the cultured for 10 days.

[14] = mouse, in vivo, 5 mg/kg
Procedure: Six WT mice were treated with 1.67 mg of 6-thio-dG/kg of body weight daily. Six WT mice were treated with 1.67 mg of 6-thio-G/kg of body weight daily. Six WT mice were treated with 5 mg of 6-thio-dG/kg of body weight daily. Six WT mice were treated with 5 mg of 6-thio-G/kg of body weight daily. The mice were given the appropriate dosage and weighed daily for 25 days.

[15] = test system: HCT116 cells; remark: listed apart in the source
Procedure: For long-term cellular experiments, HCT116 (1,000 cells/cm^2) and BJ (10,000 cells/cm^2) cells were fed with 6-thio-dG (1, 3, 10 μM) containing medium every three days. The cells were counted and replated every week for 10-16 weeks. Additionally, HCT116 cells (1,000 cells/cm^2) were fed with 6-thio-G (1, 3, 10 μM) every three days and each week cells were counted, collected for TRF (Telomere Restriction Fragment) analysis and replated. HCT116 cells, following treatment with 10 μM 6-thio-dG for 12 weeks, were then treated with a combination of 10 μM 6-thio-dG and 3 μM GRN163L for 2-4 weeks.

[16] = test system: HCC4017; test: GI 50 determination, HCC4017; assay type: cell-based; conditions: Homo sapiens
Procedure: as §3

[17] = test system: H2085; test: NSCLC panel sensitivity to 6-thio-dG, H2085; assay type: cell-based; conditions: Homo sapiens
Procedure: as §2

[18] = test system: HCT116 colon cancer cell line; test: CellTitreGlo survival, 7 days, HCT116; assay type: cell-based; conditions: Homo sapiens, HCT-116, 168 h
Procedure: (§8) Four different cell lines were treated with nine different doses of 6-thio-dG for 7 days. HCT116 colon cancer cell line (FIG. 9A), HCEC1 normal colonic cell line (FIG. 9C), A549 non-small cell lung cancer cell line (FIG. 9B), and BJ normal fibroblast cell line (FIG. 9D) were each treated. Survival fraction was measured by CellTitreGlo luminescent cell viability assay (Promega).

[19] = test system: BJ normal fibroblast cell line; test: CellTitreGlo survival, 7 days, BJ; assay type: cell-based; conditions: Homo sapiens, 168 h
Procedure: as §8

[20] = test system: BJ cells; test: Telomere dysfunction induced foci (TIF) assay in normal BJ cells; assay type: cell-based, human; conditions: 10 μM, after 48 hours
Procedure: as §6, §7

[21] = test system: HCC4017 paclitaxel/carboplatin resistant cell line; test: 6-thio-dG on HCC4017 paclitaxel/carboplatin resistant line; assay type: cell-based, human; conditions: 1, 3, 10 μM
Procedure: as §1

[22] = test system: HCT116 cells; test: Tumor growth in xenograft animal model with HCT116 cells; assay type: in vivo, mice; conditions: 2 mg/kg IP every two days, 6 injections
Procedure: Doses of 2 mg/kg of 6-thio-dG and 2 mg/kg of 6-thio-G were IP injected every two days for a total of 6 injections into mice. DMSO injections were used for the control. The volume of the tumor was measured.

SMILES: Nc1nc2c(ncn2[C@H]2C[C@H](O)[C@@H](CO)O2)c(=S)[nH]1 [6-thio-dG, 6-thio-2′-deoxyguanosine]
- histology of residual tumors [1]: mostly fibrotic and often associated with apoptotic and inflammatory cells
- rate of tumor growth (tumor volume) ([1]; compared to control and 6-thio-G): rate of tumor growth was less
- sensitivity [2]: resistant to 6-thio-dG
- IC50 [3]: 3000 to 7000 nM
- GI50 [4]: 1000 nM
- IC50 [5]: > 700 nM
- survival rate ([6]; H1819, 3 μM every three days for 1 week, normalized to DMSO control): greater than 50%
- IC50 ([6]; Homo sapiens, NCI-H1819): > 100000 nM
- >4 TIFs per nucleus background subtracted [7]: 14
- sensitivity (cell count) [8]: sensitive to all three concentrations
- GI50 [9]: 900 nM
- IC50 [10]: 3000 to 7000 nM
- IC50 [11]: 2200 nM
- survival rate ([12]; H1693, 3 μM every three days for 1 week, normalized to DMSO control): greater than 50%
- IC50 ([12]; Homo sapiens, NCI-H1693): > 100000 nM
- survival fraction ([13]; 3 μM, after 72 hours irradiated, cultured 10 days): lower than cells treated with 6-thio-G
- cell viability ([13]; cell titer glow luminescent assay): lower than cells treated with 6-thio-G
- weight loss [14]: only modest weight loss
- telomere shortening (TRF) ([15]; 1 μM or 10 μM every 3 days, 12 weeks): dramatic telomere shortening
- telomere length on continued treatment (TRF) ([15]; 10 μM 6-thio-dG for 12 weeks, continued to 16 weeks): exhibited stablized telomeres
- acquisition of resistance (cell growth) ([15]; 1, 3, 10 μM, weekly over 10 weeks): begin to acquire resistance to the treatment by the third week
- telomere length after drug removal (TRF) ([15]; 12 weeks 6-thio-dG, then normal medium without drug 2-4 weeks): remained about the same as after 12 week of 6-thio-dG treatment
- GI50 [16]: 900 nM
- IC50 [17]: 3000 to 7000 nM
- IC50 [18]: 1100 nM
- IC50 [19]: > 100000 nM
- >4 TIFs per nucleus background subtracted [20]: 2
- sensitivity [21]: still sensitive to 6-thio-dG
- rate of tumor growth (tumor volume) [22]: rate of tumor growth was less
